# Tests used:
# Assay type in all cases: cell-based
# Aspergillus niger = assay: Challenge test in fresh and aged oyster sauce (Example 3); conditions: oyster sauce aged 0 to 6 months; KS 0.10 wt %, garlic EO 0.12 wt %; one week to at least 4 weeks after start
# Method: (§1) Fresh oyster sauce (OS) tested was the commercial MAGGI Oyster Sauce product from Singapore. The OS was first pasteurized according to standard procedures. After cooling, the samples were divided into 3 groups: A) a negative control group where just 5% of sterilized water was added; B) a positive control group where potassium sorbate (KS) was added to a final concentration of 0.10 wt %; and group C) where a garlic EO acacia gum emulsion (1:1 wt ratio) was added to a final concentration of the EO of 0.12 wt %. Potassium sorbate (E number 202) is widely used as a food preservative and serves here as a positive control. Garlic EO is from Synthite Industries. It was emulsified with acacia gum in the same way as the oregano EO in Example 1.
# (§2) The three OS samples were stored (i.e. aged) at 30° C. and ca. 65% relative humidity.
# (§3) Microbiological challenge tests were performed directly after preparation of the OS samples, labelled as 0 month, and then after 3 and 6 months of storage, respectively. The challenge tests were performed in the same way as described in Example 1. However, instead of using Saccharomyces cerevisiae as spoilage culture, individual cultures of Aspergillus niger, Penicillium nalgiovense and Eurotium amstelodami were used.
# Eurotium amstelodami = assay: as above; conditions: oyster sauce aged 0 to 6 months; KS 0.10 wt %, garlic EO 0.12 wt %; one week to at least 4 weeks after start
# Method: as §1, §2, §3
# Penicillium nalgiovense = assay: as above; conditions: oyster sauce aged 0 to 6 months; KS 0.10 wt %, garlic EO 0.12 wt %; one week to at least 4 weeks after start
# Method: as §1, §2, §3
# [1] = test system: Eurotium amstelodami (mould); assay: Challenge test with moulds in MOS / MAS; conditions: for Week 0 (Log cfu/g) / Week 1 (Log cfu/g) / Week 2 (Log cfu/g) / Week 3 (Log cfu/g) / Week 4 (Log cfu/g): 0.10%; for mould growth: KS 0.10%; as to Week 1 (Log cfu/g): key: VG: growth; NVG: no growth; as to Week 2 (Log cfu/g): key: VG: growth; NVG: no growth; as to Week 3 (Log cfu/g): key: VG: growth; NVG: no growth; as to Week 4 (Log cfu/g): key: VG: growth; NVG: no growth
# Method: (§4) Target microorganisms used for the challenge tests (CT) were Zygosaccharomyces bailii (yeast), Aspergillus niger (mould), Penicillium nalgiovense (mould) and Eurotium amstelodami (mould).
# (§5) Stock culture of the mould (mould spores suspended in Tryptone Salt 0.1% diluent) was revived on RBA plates by doing a 3-point inoculation. The inoculated RBA plates were incubated at 30° C. for 36 hours or until the colonies sporulated. The spores were then aseptically sub-cultured onto PDA plates for mass harvesting of the spores. The inoculated PDA plates were then incubated for 30° C. for 36 hours or until the colonies sporulated. Then, the spores were aseptically harvested with a sterile cotton swabs and suspended in sterile Tryptone Salt 0.1% diluent. The suspensions were analyzed for mould spore counts on DG18 plates as well as for microbial contamination on PCA with Cycloheximide by spread plating 0.1-0.5 ml of suspension onto the agar plates respectively. Before the challenge test is initiated, the suspension inoculated with the mould spores was diluted aseptically with sterile Tryptone Salt 0.1% to the desired level such that the inoculation level in the product would be 2-3 log of colony-forming-units (cfu) of moulds per gram of product.
# (§6) Challenge Test with moulds was according to the following steps: 1) Add 100 g of MOS into a 250 ml sterile Schott bottle with screw-cap cover; 2) Add 0.1 to 2 ml of mould (A. niger/P. nalgiovence/E. amstelodami) inoculum to meet the target inoculum of 10^2-10^3 cfu/g of MOS into the 100 g MOS and shake to mix well; 3) Pour 35 g of the inoculated MOS into a petri dish. Perform this in duplicate; 4) Pipette 1 g of inoculated MOS from the Schott bottle into 9 ml sterile Tryptone Salt 0.1% diluents and vortex. Perform this in duplicate; 5) Plate 0.1-0.5 ml of inoculated Tryptone Salt 0.1% onto DG18 plates at appropriate dilutions by Spread Plate Method. Incubate the agar plates at 25° C. for 5 days to enumerate the initial mould count; 6) Incubate the inoculated MOS in petri dishes at 30° C. for a week. Monitor for mould growth by visual observation after one week. Perform this mould growth monitoring for a period of 4 weeks; 7) The control was prepared by repeating steps 3 to 6 without using any inoculum. The control was plated onto PCA with Cycloheximide plates.
# (§7) The method for producing MAS was the same as for the MOS production in experiment 4. The preparation of the microorganism cultures as well as the challenge tests were identical to the ones described in experiment 4 as well.
# [2] = test system: Penicillium nalgiovense (mould); assay: Challenge test with moulds in MOS / MAS; conditions: for Week 0 (Log cfu/g) / Week 1 (Log cfu/g) / Week 2 (Log cfu/g) / Week 3 (Log cfu/g) / Week 4 (Log cfu/g): 0.10%; for mould growth: KS 0.10%; as to Week 1 (Log cfu/g): key: VG: growth; NVG: no growth; as to Week 2 (Log cfu/g): key: VG: growth; NVG: no growth; as to Week 3 (Log cfu/g): key: VG: growth; NVG: no growth; as to Week 4 (Log cfu/g): key: VG: growth; NVG: no growth
# Method: as §4, §5, §6, §7
# [3] = MAGGI Abalone Sauce, age 0 month
# [4] = MAGGI Abalone Sauce, age 1 month
# [5] = MAGGI Abalone Sauce, age 3 month
# [6] = MAGGI Abalone Sauce, age 6 month
# [7] = MAGGI Abalone Sauce, age 10 month
# [8] = MAGGI Abalone Sauce, age 12 month
# [9] = MAGGI Abalone Sauce, up to 12 months, clove leaf oil 0.06 wt % and 0.15 wt %
# [10] = MAGGI Oyster Sauce, garlic EO 0.06 wt % and 0.12 wt %
# [11] = MAGGI Oyster Sauce, age 0 month
compound,measurement,setting,value
"C/C=C/C=C/C(=O)[O-].[K+] [KS, potassium sorbate]",growth of the mould strain,Aspergillus niger,no detectable growth
same,growth of the mould strain,Eurotium amstelodami,no detectable growth
same,growth of the mould strain,Penicillium nalgiovense,no detectable growth
same,Week 0 (Log cfu/g),[1]; [3],2.93 Log cfu/g
same,Week 1 (Log cfu/g),[1]; [3],NVG
same,Week 2 (Log cfu/g),[1]; [3],NVG
same,Week 3 (Log cfu/g),[1]; [3],NVG
same,Week 4 (Log cfu/g),[1]; [3],NVG
same,Week 0 (Log cfu/g),[1]; [4],1.54 Log cfu/g
same,Week 1 (Log cfu/g),[1]; [4],NVG
same,Week 2 (Log cfu/g),[1]; [4],NVG
same,Week 3 (Log cfu/g),[1]; [4],NVG
same,Week 4 (Log cfu/g),[1]; [4],NVG
same,Week 0 (Log cfu/g),[1]; [5],2.69 Log cfu/g
same,Week 1 (Log cfu/g),[1]; [5],NVG
same,Week 2 (Log cfu/g),[1]; [5],NVG
same,Week 3 (Log cfu/g),[1]; [5],NVG
same,Week 4 (Log cfu/g),[1]; [5],NVG
same,Week 0 (Log cfu/g),[1]; [6],2.67 Log cfu/g
same,Week 1 (Log cfu/g),[1]; [6],NVG
same,Week 2 (Log cfu/g),[1]; [6],NVG
same,Week 3 (Log cfu/g),[1]; [6],NVG
same,Week 4 (Log cfu/g),[1]; [6],NVG
same,Week 0 (Log cfu/g),[1]; [7],3.80 Log cfu/g
same,Week 1 (Log cfu/g),[1]; [7],NVG
same,Week 2 (Log cfu/g),[1]; [7],NVG
same,Week 3 (Log cfu/g),[1]; [7],NVG
same,Week 4 (Log cfu/g),[1]; [7],NVG
same,Week 0 (Log cfu/g),[1]; [8],2.38 Log cfu/g
same,Week 1 (Log cfu/g),[1]; [8],NVG
same,Week 2 (Log cfu/g),[1]; [8],NVG
same,Week 3 (Log cfu/g),[1]; [8],NVG
same,Week 4 (Log cfu/g),[1]; [8],NVG
same,mould growth,[1]; [9],not detected
same,mould growth,[1]; [10],not detected
same,Week 0 (Log cfu/g),[1]; [11],2.204 Log cfu/g
same,Week 1 (Log cfu/g),[1]; [11],NVG
same,Week 2 (Log cfu/g),[1]; [11],NVG
same,Week 3 (Log cfu/g),[1]; [11],NVG
same,Week 4 (Log cfu/g),[1]; [11],NVG
same,Week 0 (Log cfu/g),[2]; [3],1.54 Log cfu/g
same,Week 1 (Log cfu/g),[2]; [3],NVG
same,Week 2 (Log cfu/g),[2]; [3],NVG
same,Week 3 (Log cfu/g),[2]; [3],NVG
same,Week 4 (Log cfu/g),[2]; [3],NVG
same,Week 0 (Log cfu/g),[2]; [4],1.73 Log cfu/g
same,Week 1 (Log cfu/g),[2]; [4],NVG
same,Week 2 (Log cfu/g),[2]; [4],NVG
same,Week 3 (Log cfu/g),[2]; [4],NVG
same,Week 4 (Log cfu/g),[2]; [4],NVG
same,Week 0 (Log cfu/g),[2]; [5],2.71 Log cfu/g
same,Week 1 (Log cfu/g),[2]; [5],NVG
same,Week 2 (Log cfu/g),[2]; [5],NVG
same,Week 3 (Log cfu/g),[2]; [5],NVG
same,Week 4 (Log cfu/g),[2]; [5],NVG
same,Week 0 (Log cfu/g),[2]; [6],2.03 Log cfu/g
same,Week 1 (Log cfu/g),[2]; [6],NVG
same,Week 2 (Log cfu/g),[2]; [6],NVG
same,Week 3 (Log cfu/g),[2]; [6],NVG
same,Week 4 (Log cfu/g),[2]; [6],NVG
same,Week 0 (Log cfu/g),[2]; [7],3.86 Log cfu/g
same,Week 1 (Log cfu/g),[2]; [7],NVG
same,Week 2 (Log cfu/g),[2]; [7],NVG
same,Week 3 (Log cfu/g),[2]; [7],NVG
same,Week 4 (Log cfu/g),[2]; [7],NVG
same,Week 0 (Log cfu/g),[2]; [8],3.26 Log cfu/g
same,Week 1 (Log cfu/g),[2]; [8],NVG
same,Week 2 (Log cfu/g),[2]; [8],NVG
same,Week 3 (Log cfu/g),[2]; [8],NVG
same,Week 4 (Log cfu/g),[2]; [8],NVG
same,mould growth,[2]; [9],not detected
same,mould growth,[2]; [10],not detected
same,Week 0 (Log cfu/g),[2]; [11],4.079 Log cfu/g
same,Week 1 (Log cfu/g),[2]; [11],NVG
same,Week 2 (Log cfu/g),[2]; [11],NVG
same,Week 3 (Log cfu/g),[2]; [11],NVG
same,Week 4 (Log cfu/g),[2]; [11],NVG

# — US8859018B2, “Delivery carrier for antimicrobial essential oils” (Nestec S.A., priority 2010, dated 2014)
